Results published in paper PMC5460274 (Scientific Reports, 2017).

What was measured:
Format in all cases: cell-based
[1] = target: T1, dimethylarginine dimethylaminohydrolase 1 (DDAH1) (Homo sapiens, UniProt O94760); assay: UPLC-MS of L-citrulline formation from ADMA; […] inhibition at […]
T1 construct: recombinant DDAH1 over-expressed in HEK293T cells (lysate)

[2] = target: T1, dimethylarginine dimethylaminohydrolase 1 (DDAH1); assay: UPLC-MS of L-citrulline formation; […] inhibition at […], time-dependent, reversible on dilution
[3] = target: T1, dimethylarginine dimethylaminohydrolase 1 (DDAH1); assay: UPLC-MS of L-citrulline formation; […] inhibition at […], reversible on dilution

T1 sequence (O94760 2-285): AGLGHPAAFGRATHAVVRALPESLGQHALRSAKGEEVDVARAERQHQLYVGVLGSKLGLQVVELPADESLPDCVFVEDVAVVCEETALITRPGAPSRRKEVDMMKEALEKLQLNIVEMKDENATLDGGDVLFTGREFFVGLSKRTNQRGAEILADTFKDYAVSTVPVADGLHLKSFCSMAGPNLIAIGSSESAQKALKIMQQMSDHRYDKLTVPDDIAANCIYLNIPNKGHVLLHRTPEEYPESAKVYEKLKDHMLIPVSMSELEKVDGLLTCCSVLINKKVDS

COCCNC(N)=NCCC[C@H](N)C(=O)NS(C)(=O)=O [10a, ZST316]
% [1]: 72%

Cc1c(OCC(F)(F)F)ccnc1C[S+]([O-])c1nc2ccccc2[nH]1 (stereo not drawn) [LPZ, lansoprazole]
% [2]: 23%

COc1ccc2[nH]c([S+]([O-])Cc3ncc(C)c(OC)c3C)nc2c1 (stereo not drawn) [OPZ, omeprazole]
% [3]: 24%
